According to EP4806899A1, “FUSED RING DERIVATIVE, PREPARATION METHOD THEREFOR AND USE THEREOF IN MEDICINE” (Shanghai Qilu Pharmaceutical Research and Development …, priority 2023, dated 2025):
Where “and” joins values, the source holds several entries; their conditions need not be identical. Equal entries are not always repeated.

Tests used:
plasma hormone levels = assay: Pharmacodynamic determination in monkeys: plasma aldosterone and cortisol after ACTH stimulation; type: in vivo, cynomolgus monkeys; conditions: P.O.
Experimental: Cynomolgus monkeys were used as test animals to evaluate the pharmacodynamics of multiple compounds of the present disclosure on plasma hormone levels following gavage administration (P.O.) at various doses such as 0.1 mpk (and others, e.g., 0.03 mpk, 0.1 mpk, and 0.3 mpk).
Male cynomolgus monkeys, Suzhou Xishan Zhongke Laboratory Animal Co., Ltd. Animal production license number: SCXK (Su) 2023-0001, animal use license number: SYXK (Su) 2020-0017.
Male cynomolgus monkeys were performed gavage administration (P.O.) at doses set as: 0 mpk (vehicle group, i.e., Veh group), 0.03 mpk, 0.1 mpk, and 0.3 mpk. In each group, 15 µg/kg ACTH was injected intramuscularly 1 hour after dosing. Continuous venous blood samples were collected from each group at 1 hour before administration and at multiple time points after administration. Blood samples were collected, and plasma aldosterone and its precursors, as well as plasma corticosterone and its precursors, at multiple time points were analyzed using LC/MS methods.
Venous blood samples were collected at 1-2 hours before gavage administration and at multiple time points after intramuscular injection of ACTH (adrenocorticotropic hormone). The samples were placed in EDTA-K2 tubes, centrifuged at 4 °C, 2600 g for 10 minutes to separate plasma, which was then stored at -80 °C.
• HPLC: Waters ACQUITY UPLC I-Class PLUS; • Mass spectrometry conditions: Triple Quad™ 7500 (Serial No. FA224362212) mass spectrometer; • Chromatographic column: phenomenex kinetex 2.6µm C8 100A 50 × 4.60 mm; • Mobile phase: mobile phase A was 0.5 mM ammonium fluoride solution containing 0.1% formic acid; mobile phase B was MeOH.
The data in Figs. 1, 2, 3, 4, and 5 are analyzed based on PD changes at 30 minutes after ACTH stimulation. The percentage of PD relative to the control group (Veh group) at 30 minutes after ACTH stimulation serves as the main basis for pharmacodynamic evaluation, calculated according to the following formula: [formula] where PD refers to aldosterone or cortisol. Table 8 Pharmacodynamic Evaluation of Example Compound C44 in Monkeys

human CYP11B1 enzyme = biological target: T1, human CYP11B1 enzyme (Homo sapiens, UniProt P15538); assay: Enzyme inhibition activity assay in G402 cells stably expressing human CYP11B1 (cortisol production from 11-DC, LC/MS); type: cell-based; conditions: 1 µM 11-DC, 16 hours, cortisol detected
T1 construct: the ORF of human CYP11B1 or CYP11B2 were transfected into G402 cells; expressed in transfected cells
T1 sequence (P15538 25-503): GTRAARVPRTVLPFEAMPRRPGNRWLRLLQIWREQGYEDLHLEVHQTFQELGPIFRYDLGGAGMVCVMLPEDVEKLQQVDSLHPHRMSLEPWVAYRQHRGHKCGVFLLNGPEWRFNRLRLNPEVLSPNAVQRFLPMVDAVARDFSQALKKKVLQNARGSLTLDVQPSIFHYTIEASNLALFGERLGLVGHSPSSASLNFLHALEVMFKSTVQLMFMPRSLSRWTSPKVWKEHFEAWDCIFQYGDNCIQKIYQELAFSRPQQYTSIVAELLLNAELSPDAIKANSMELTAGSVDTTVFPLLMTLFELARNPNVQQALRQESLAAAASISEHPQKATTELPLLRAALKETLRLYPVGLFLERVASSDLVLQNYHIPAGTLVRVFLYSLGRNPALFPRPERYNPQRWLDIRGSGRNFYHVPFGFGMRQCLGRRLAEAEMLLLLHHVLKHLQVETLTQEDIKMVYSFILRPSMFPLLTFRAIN
Description: (§1) G402 cells (ATCC, CRL 1440) are epithelioid cells isolated from the kidney of a patient with renal failure and are a type of leiomyoblastoma. For the screening of highly specific CYP11B2 inhibitors, we specifically used G402 cell lines stably expressing human CYP11B2 enzyme or human CYP11B1 enzyme for experimental development.
(§2) Construction of Stably Transfected Cell Lines: Expression plasmids containing suitable promoters, suitable drug resistance markers, and the ORF of human CYP11B1 or CYP11B2 were transfected into G402 cells using standard techniques. The cells were then screened using the specific puromycin resistance marker. Monoclonal cells stably expressing human CYP11B2 were selected for expansion, and 11-deoxycorticosterone (11-DOC) was used as the specific substrate to evaluate enzyme activity based on aldosterone production. Monoclonal cells stably expressing human CYP11B1 were selected for expansion, and 11-deoxycortisol (11-DC) was used as the specific substrate, with cortisol production as the detection target for specific enzyme activity evaluation. The G402 cell lines stably expressing CYP11B1/CYP11B2 were cultured at 37 °C, 5% CO2, 95% air in complete medium (McCoy's 5A + 10% FBS + 1% PS + 0.5 µg/mL puromycin).
(§3) Enzyme Inhibition Activity Assay: CYP11B1 G402/CYP11B2 G402 cells were spread out flatly in cell culture plates. After 24 hours, the medium was changed to an enzyme testing system (DMEM/F12 + 2.5% charcoal-stripped FCS). Small molecule inhibitors at various concentrations were added. After 1 hour, appropriate concentrations of specific substrates (1 µM 11-DOC / 1 µM 11-DC) were added and co-incubated with the cells for 16 hours. Cells were then collected, and specific products were detected using LC/MS methods with an AB SCIEX TRIPLE QUAD 5500+, CTO-40S instrument (CYP11B2 enzyme detecting aldosterone; CYP11B1 enzyme detecting cortisol).
(§4) The IC50 values of the compounds were determined based on the G402 testing system. The dose-dependent inhibition of enzyme activity was calculated by plotting the added inhibitor concentration (x-axis) against the percentage of product inhibitory activity relative to the control group (y-axis) based on product formation at various compound concentrations. The following data were then fitted using the least squares method with XLfit 5.5.0 for a four-parameter logistic curve fit: [formula] • Y-axis: Percentage of product inhibitory activity relative to the control group; • logIC50: IC50 was determined using XLFit.
(§5) The maximum enzyme activity corresponds to the amount of control product steroid/aldosterone in the absence of inhibitor, set as 100%. The minimum enzyme activity corresponds to the amount of reference control product steroid/aldosterone in the presence of inhibitor. Table 3 Inhibitory Activity of the Compounds of the Present Disclosure on CYP11B2 and CYP11B1

in vivo = conditions: male, Sprague-Dawley, rat, plasma, po, 10 mg/kg
Experimental: • 1) 50 µL of plasma sample was precipitated by adding 200 µL of acetonitrile, vortex mixed, and centrifuged for 15 minutes. • 2) The processed supernatant was diluted with water and analyzed by LC/MS/MS to determine the concentration of the test compound.
Pharmacokinetic parameters were calculated using WinNonlin 8.3. […] Cmax represents the maximum plasma concentration, T1/2 represents the terminal elimination half-life, MRTInf represents the mean residence time, and AUC represents the area under the plasma concentration-time curve.

human CYP11B2 enzyme = biological target: T2, human CYP11B2 enzyme (Homo sapiens, UniProt P19099); assay: Enzyme inhibition activity assay in G402 cells stably expressing human CYP11B2 (aldosterone production from 11-DOC, LC/MS); type: cell-based; conditions: 1 µM 11-DOC, 16 hours, aldosterone detected
T2 construct: the ORF of human CYP11B1 or CYP11B2 were transfected into G402 cells; expressed in transfected cells
T2 sequence (P19099 25-503): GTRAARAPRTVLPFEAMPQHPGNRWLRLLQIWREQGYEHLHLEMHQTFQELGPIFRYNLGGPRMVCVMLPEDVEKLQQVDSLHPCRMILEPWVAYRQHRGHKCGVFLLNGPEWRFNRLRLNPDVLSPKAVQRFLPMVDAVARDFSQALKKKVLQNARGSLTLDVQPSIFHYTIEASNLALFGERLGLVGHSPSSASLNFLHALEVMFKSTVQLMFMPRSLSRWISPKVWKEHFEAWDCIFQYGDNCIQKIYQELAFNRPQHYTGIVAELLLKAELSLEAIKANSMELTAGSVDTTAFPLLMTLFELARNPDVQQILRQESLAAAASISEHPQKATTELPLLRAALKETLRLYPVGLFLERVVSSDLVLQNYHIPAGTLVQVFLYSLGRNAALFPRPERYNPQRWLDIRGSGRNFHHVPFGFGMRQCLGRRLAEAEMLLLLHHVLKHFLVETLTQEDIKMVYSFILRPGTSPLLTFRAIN
Description: as §1, §2, §3, §4, §5

[1] = Pharmacokinetic determination in mice after gavage administration (P.O.); type: in vivo; conditions: male, CD-1, mouse, po, 10 mg/kg, plasma; for AUC(0-t): read-out: AUC0-24
Experimental: Mice and rats were used as test animals to study the pharmacokinetic behavior of the compounds of the present disclosure in plasma following gavage administration (P.O.). Plasma samples were collected at specific time points, compound concentrations in plasma were detected by LC-MS/MS, and pharmacokinetic parameters were calculated to evaluate the pharmacokinetics.
• Mice, CD-1, male, Zhejiang Vital River Laboratory Animal Technology Co., Ltd. • Rats, Sprague-Dawley, male, Zhejiang Vital River Laboratory Animal Technology Co., Ltd., Shanghai Jihui Experimental Animal Breeding Co., Ltd.
After administration to mice and rats, venous blood samples of 0.03 mL and 0.2 mL, respectively, were collected at 0.0833 (IV), 0.25, 0.5, 1, 2, 4, 8, and 24 hours and placed in EDTA-K2 test tubes. Plasma was separated by centrifugation at 4 °C, 4000 g for 5 minutes and stored at -80 °C.
• 1) 10 µL of plasma sample was precipitated by adding 200 µL of acetonitrile, vortex mixed, and centrifuged for 15 minutes. • 2) The processed supernatant was diluted with water and analyzed by LC/MS/MS to determine the concentration of the test compound.
Pharmacokinetic parameters were calculated using WinNonlin 8.3. The pharmacokinetic parameters for mice P.O. are shown in Table 4, and for rats P.O. in Table 5. Cmax represents the maximum plasma concentration, T1/2 represents the terminal elimination half-life, MRTInf represents the mean residence time, and AUC represents the area under the plasma concentration-time curve. Table 4 Pharmacokinetic Parameters of the Compounds of the Present Disclosure in Mice

[2] = 0.03 mpk, 30min after ACTH stimulation, plasma
[3] = 0.1 mpk, 30min after ACTH stimulation, plasma
[4] = 0.3 mpk, 30min after ACTH stimulation, plasma

| SMILES | Aldosterone (plasma hormone levels; 0.03 mpk, 0h, plasma) [ng/mL] | Cortisol (plasma hormone levels; 0.03 mpk, 0h, plasma) [ng/mL] | Aldosterone (plasma hormone levels; [2]) [ng/mL] | Cortisol (plasma hormone levels; [2]) [ng/mL] | Aldosterone (plasma hormone levels; 0.1 mpk, 0h, plasma) [ng/mL] | Cortisol (plasma hormone levels; 0.1 mpk, 0h, plasma) [ng/mL] | Aldosterone (plasma hormone levels; [3]) [ng/mL] | Cortisol (plasma hormone levels; [3]) [ng/mL] | Aldosterone (plasma hormone levels; 0.3 mpk, 0h, plasma) [ng/mL] | Cortisol (plasma hormone levels; 0.3 mpk, 0h, plasma) [ng/mL] | Aldosterone (plasma hormone levels; [4]) [ng/mL] | Cortisol (plasma hormone levels; [4]) [ng/mL] | IC50 (human CYP11B1 enzyme) | AUC(0-t) (in vivo) [µM·h] | Cmax (in vivo) [µM] | IC50 (human CYP11B2 enzyme) | Cmax [1] [µM] | MRT inf [1] [h] | half-life [1] [h] | AUC(0-t) [1] [µM·h] | further results |
| --- | --- | --- | --- | --- | --- | --- | --- | --- | --- | --- | --- | --- | --- | --- | --- | --- | --- | --- | --- | --- | --- |
| CCC(=O)N[C@@H]1CCOc2c(-c3ccc4c(ccc(=O)n4C)c3)cncc21 [Compound A09] | 0.20 | 214.0 | 0.34 | 285.3 | 0.24 | 256.7 | 012 | 345.0 | 0.08 | 286.7 | 0.07 | 388.3 | 3380 nM and 18800 nM | 522 | 52.1 | 8.2 nM and 13.8 nM | – | – | – | – | MRT inf (in vivo): 8.19 h; half-life (in vivo): 5.91 h |
| CCC(=O)N[C@@H]1CCCc2c(-c3ccc4c(c3)COC(=O)N4C)cncc21 [Compound C07] | – | – | – | – | – | – | – | – | – | – | – | – | 1150 nM | – | – | 13.2 nM | 30.2 | 4.36 | 2.54 | 223 | – |
| CCC(=O)N[C@@H]1CCCc2c(-c3cc(F)c4c(ccc(=O)n4C)c3)cncc21 [Compound C41] | – | – | – | – | – | – | – | – | – | – | – | – | 4900 nM | – | – | 11.1 nM | 25 | 5.07 | 2.83 | 209 | – |
| CCC(=O)N[C@@H]1CCCc2c(-c3cc(C)c4c(ccc(=O)n4C)c3)cncc21 [Compound C43] | 0.16 | – | 0.26 | – | 0.16 | – | 0.15 | – | 0.20 | – | 0.14 | – | 7220 nM | 345 | 47.9 | 16.7 nM | – | – | – | – | Cortisol (plasma hormone levels; 0.03 mpk, 0h, plasma (Table 11)): 268.3 ng/mL; Cortisol (plasma hormone levels; 0.03 mpk, 30min after ACTH stimulation, plasma (Table 11)): 358.7 ng/mL; Cortisol (plasma hormone levels; 0.1 mpk, 0h, plasma (Table 11)): 282.0 ng/mL; Cortisol (plasma hormone levels; 0.1 mpk, 30min after ACTH stimulation, plasma (Table 11)): 386.0 ng/mL; Cortisol (plasma hormone levels; 0.3 mpk, 0h, plasma (Table 11)): 276.0 ng/mL; Cortisol (plasma hormone levels; 0.3 mpk, 30min after ACTH stimulation, plasma (Table 11)): 346.7 ng/mL; MRT inf (in vivo): 6.24 h; half-life (in vivo): 4.77 h |
| CCC(=O)N[C@@H]1CCCc2c(-c3cc(F)c4c(c3)COC(=O)N4C)cncc21 [Compound C44] | 0.07 | 279.5 | 0.28 | 384.0 | 0.24 | 455.0 | 0.20 | 538.5 | 0.07 | 265.5 | 0.07 | 396.0 | – | – | – | 187 nM | 53.1 | 4.78 | 2.28 | 421 | – |
